The values that follow come from patent US20230167073A1 (Teijin Pharma Limited, priority 2020, published 2023).

The assay concerns the target T1, Human TRPC6 (Homo sapiens, UniProt Q9Y210).
T1 construct: expressed in transfected cells
T1 sequence (Q9Y210 1-931): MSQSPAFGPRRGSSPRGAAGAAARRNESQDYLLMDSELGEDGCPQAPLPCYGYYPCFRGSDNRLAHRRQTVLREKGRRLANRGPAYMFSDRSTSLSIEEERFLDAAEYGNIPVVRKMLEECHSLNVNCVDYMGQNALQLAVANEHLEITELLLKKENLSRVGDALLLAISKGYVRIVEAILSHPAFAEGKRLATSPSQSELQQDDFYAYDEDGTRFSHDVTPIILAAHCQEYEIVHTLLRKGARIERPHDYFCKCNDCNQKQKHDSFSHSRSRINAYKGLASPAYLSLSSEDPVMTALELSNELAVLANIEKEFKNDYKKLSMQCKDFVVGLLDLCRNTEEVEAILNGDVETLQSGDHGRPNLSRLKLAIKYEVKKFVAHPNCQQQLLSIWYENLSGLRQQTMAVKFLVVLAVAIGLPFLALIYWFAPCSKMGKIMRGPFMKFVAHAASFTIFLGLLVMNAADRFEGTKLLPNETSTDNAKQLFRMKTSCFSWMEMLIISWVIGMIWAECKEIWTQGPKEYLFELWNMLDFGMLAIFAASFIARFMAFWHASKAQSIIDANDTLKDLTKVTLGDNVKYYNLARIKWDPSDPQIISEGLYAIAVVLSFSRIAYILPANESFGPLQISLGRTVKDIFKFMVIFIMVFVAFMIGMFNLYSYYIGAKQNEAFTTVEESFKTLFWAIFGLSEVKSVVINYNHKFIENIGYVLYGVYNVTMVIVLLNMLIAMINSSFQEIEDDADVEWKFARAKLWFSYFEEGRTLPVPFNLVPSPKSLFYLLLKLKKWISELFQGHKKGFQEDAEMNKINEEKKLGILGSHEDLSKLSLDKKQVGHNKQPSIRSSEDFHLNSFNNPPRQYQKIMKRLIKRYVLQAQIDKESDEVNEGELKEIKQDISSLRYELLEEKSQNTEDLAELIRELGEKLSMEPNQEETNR
As to the kind of experiment: Evaluation of TRPC6 channel inhibitory activity (1), FLIPR Calcium 5 Assay Kit, OAG stimulation (Compound Nos. 1-1293). The note with it: Human TRPC6 stably-expressing cells, OAG 30 μM, FLIPR Calcium 5 Assay Kit; read-out: Inhibitory activity (pIC50 class) (converted). The assay is classed as cell-based. Put shortly: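 TRPC6 (human) stable cells, 24 h culture; Ca5 no-wash dye + probenecid 30 min; cpd 20 min; OAG 30 μM final; ΔF (pre-cpd min to post-OAG max); 0%/100% = no cpd / no cpd + no OAG; 4PL → pIC50, binned +/++/+++.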
For `Cc1cc(Oc2cc(C#N)ccc2-c2ncc(CCN)cn2)cc(N2CCO[C@H](C(F)F)C2)n1` [compound 439, 4-[5-(2-aminoethyl)pyrimidin-2-yl]-3-[2-[(2S)-2-(difluoromethyl)morpholin-4-yl]-6-methylpyridin-4-yl]oxybenzonitrile], the IC50 is below 10 nM.

With `Cc1cccc(-c2cn(Cc3cc(C#N)ccc3-c3ccc(CCN)cn3)c(C)n2)c1` [compound 1155, 4-[5-(2-aminoethyl)pyridin-2-yl]-3-[[2-methyl-4-(3-methylphenyl)imidazol-1-yl]methyl]benzonitrile], the IC50 is below 10 nM.

On to `Cc1nc(OCC2CCC2)cc(Oc2cc(C#N)ccc2-n2cc([C@@H](O)CN)cn2)n1` [Compound 270, 4-[4-[(1R)-2-amino-1-hydroxyethyl]pyrazol-1-yl]-3-[6-(cyclobutylmethoxy)-2-methylpyrimidin-4-yl]oxybenzonitrile], for which the IC50 was 10 to 1000 nM.

For the molecule `Cc1nc(Oc2cc(C#N)ccc2-n2cc([C@@H](O)CN)cn2)cc(-c2ccccc2Cl)n1` [compound 340, 4-[4-[(1R)-2-amino-1-hydroxyethyl]pyrazol-1-yl]-3-[6-(2-chlorophenyl)-2-methylpyrimidin-4-yl]oxybenzonitrile], the IC50 is 10 to 1000 nM. The value for `Cn1nc(C2CCOCC2)cc1Oc1cc(C#N)ccc1-c1cnc(CCN)cn1` [compound 389, 4-[5-(2-aminoethyl)pyrazin-2-yl]-3-[2-methyl-5-(oxan-4-yl)pyrazol-3-yl]oxybenzonitrile] was 10 to 1000 nM; that for `N#Cc1ccc(-c2ncc(CN)cn2)c(Sc2nnc(N3CCCCC3)s2)c1` [compound 1269, 4-[5-(aminomethyl)pyrimidin-2-yl]-3-[(5-piperidin-1-yl-1,3,4-thiadiazol-2-yl)sulfanyl]benzonitrile] was above 1000 nM. Consider `CC(=O)Nc1cc(Oc2cc(C#N)ccc2-c2ccc(CCN)cn2)n(C)n1` [compound 547, N-[5-[2-[5-(2-aminoethyl)pyridin-2-yl]-5-cyanophenoxy]-1-methylpyrazol-3-yl]acetamide], for which the IC50 is 10 to 1000 nM.

As to `Cn1nc(C2CC2)cc1Oc1cc(C#N)ccc1-c1ncc(CCN)cn1` [compound 317, 4-[5-(2-aminoethyl)pyrimidin-2-yl]-3-(5-cyclopropyl-2-methylpyrazol-3-yl)oxybenzonitrile], the IC50 is below 10 nM. Regarding `Cc1cc(Oc2cc(C#N)ccc2-n2cc(C(O)CN)cn2)cc(-c2ccccc2)n1` (stereo not drawn) [Compound 226, 4-[4-(2-amino-1-hydroxyethyl)pyrazol-1-yl]-3-(2-methyl-6-phenylpyridin-4-yl)oxybenzonitrile], the IC50 is below 10 nM. In the case of `CCOC(=O)CCNCCc1ccc(-c2ccc(C#N)cc2Oc2cc(N3CCOCC3)nc(C)n2)cc1` [Compound 54, ethyl 3-[2-[4-[4-cyano-2-(2-methyl-6-morpholin-4-ylpyrimidin-4-yl)oxyphenyl]phenyl]ethylamino] propanoate] it was above 1000 nM. The value for `Cn1nc(-c2ccccc2)c(F)c1Oc1cc(C#N)ccc1-c1ncc(CCN)cn1` [compound 360, 4-[5-(2-aminoethyl)pyrimidin-2-yl]-3-(4-fluoro-2-methyl-5-phenylpyrazol-3-yl)oxybenzonitrile] was below 10 nM; that for `CCN(CC)c1cc(C(=O)c2cc(C#N)ccc2-c2ncc(CCN)cn2)n(C)n1` [compound 1032, 4-[5-(2-aminoethyl)pyrimidin-2-yl]-3-[5-(diethylamino)-2-methylpyrazole-3-carbonyl]benzonitrile] was below 10 nM; that for `Cn1nc(C2CC2)cc1Oc1cc(C#N)ccc1-c1ncc(CN)o1` [compound 584, 4-[5-(aminomethyl)-1,3-oxazol-2-yl]-3-(5-cyclopropyl-2-methylpyrazol-3-yl)oxybenzonitrile] was above 1000 nM. The value for `N#Cc1ccc(-c2ccc(CCN)cn2)c(Oc2nnc(C3CC3)s2)c1` [compound 718, 4-[5-(2-aminoethyl)pyridin-2-yl]-3-[(5-cyclopropyl-1,3,4-thiadiazol-2-yl)oxy]benzonitrile] was below 10 nM; that for `N#Cc1ccc(-c2ccc(C(N)C(=O)O)cn2)c(Oc2cnnc(-c3ccccc3)c2)c1` (stereo not drawn) [compound 433, 2-amino-2-[6-[4-cyano-2-(6-phenylpyridazin-4-yl)oxyphenyl]pyridin-3-yl]acetic acid] was 10 to 1000 nM. For the molecule `Cn1nc(-c2ccccc2OCc2ccccc2)cc1Oc1cc(C#N)ccc1-c1ccc(C(O)CN)cn1` (stereo not drawn) [compound 322, 4-[5-(2-amino-1-hydroxyethyl)pyridin-2-yl]-3-[2-methyl-5-(2-phenylmethoxyphenyl)pyrazol-3-yl]oxybenzonitrile], the IC50 was 10 to 1000 nM. The value for `Cn1nc(C2CC2)cc1Oc1cc(C#N)ccc1-c1cc(CN)cn2ccnc12` [compound 736, 4-[6-(aminomethyl)imidazo[1,2-a]pyridin-8-yl]-3-(5-cyclopropyl-2-methylpyrazol-3-yl)oxybenzonitrile] was 10 to 1000 nM. Turning to `Cc1cc(Oc2nc(C#N)ccc2-c2ccc(CCN)cn2)cc(N2CCOCC2)n1` [compound 1284, 5-[5-(2-aminoethyl)pyridin-2-yl]-6-(2-methyl-6-morpholin-4-ylpyridin-4-yl)oxypyridine-2-carbonitrile], the IC50 is 10 to 1000 nM. In the case of `Cn1nc(-c2ccccn2)cc1Oc1cc(C#N)ccc1-c1nc(Cl)c2c(n1)CCNC2` [compound 761] it was above 1000 nM. In the case of `Cc1nc(Oc2cc(C#N)ccc2-c2ncc(CCN)cn2)cc(N2CCCC2=O)n1` [compound 880, 4-[5-(2-aminoethyl)pyrimidin-2-yl]-3-[2-methyl-6-(2-oxopyrrolidin-1-yl)pyrimidin-4-yl]oxybenzonitrile] it was 10 to 1000 nM.

Consider `COCCN(C)c1cc(Oc2cc(C#N)ccc2-c2ncc(CCN)cn2)n(C)n1` [compound 760, 4-[5-(2-aminoethyl)pyrimidin-2-yl]-3-[5-[2-methoxyethyl(methyl)amino]-2-methylpyrazol-3-yl]oxybenzonitrile], for which the IC50 was below 10 nM. In the case of `CN(C)c1cc(Oc2cc(C#N)ccc2-c2ccc([C@H](F)CN)cn2)n(C)n1` [compound 909, 4-[5-[(1S)-2-amino-1-fluoroethyl]pyridin-2-yl]-3-[5-(dimethylamino)-2-methylpyrazol-3-yl]oxybenzonitrile], the IC50 is below 10 nM.

As to `N#Cc1ccc(-c2ncc(CCN)cn2)c(C(=O)c2cnn(-c3ncccn3)c2)c1` [compound 1052, 4-[5-(2-aminoethyl)pyrimidin-2-yl]-3-(1-pyrimidin-2-ylpyrazole-4-carbonyl)benzonitrile], the IC50 is 10 to 1000 nM. As to `Cc1nc(Oc2cc(C#N)ccc2-c2ncc(CN)cn2)cc(N2CCCC2=O)n1` [compound 851, 4-[5-(aminomethyl)pyrimidin-2-yl]-3-[2-methyl-6-(2-oxopyrrolidin-1-yl)pyrimidin-4-yl]oxybenzonitrile], the IC50 is above 1000 nM. `COc1cccnc1-c1cc(Oc2cc(C#N)ccc2-c2ccc([C@H](O)CN)cn2)cc(C)n1` [compound 513, 4-[5-[(1S)-2-amino-1-hydroxyethyl]pyridin-2-yl]-3-[2-(3-methoxypyridin-2-yl)-6-methylpyridin-4-yl]oxybenzonitrile]: the IC50 was 10 to 1000 nM.

`Cc1cc(Oc2cc(C#N)ccc2-c2ccc(CCN)cn2)cc(N2CCN(C)C(=O)C2)n1` [compound 464, 4-[5-(2-aminoethyl)pyridin-2-yl]-3-[2-methyl-6-(4-methyl-3-oxopiperazin-1-yl)pyridin-4-yl]oxybenzonitrile]: the IC50 is above 1000 nM. Consider `Cc1nc(C(=O)c2cc(F)ccc2-c2ncc(CCN)cn2)cc(N2CCOCC2)n1` [compound 1103, [2-[5-(2-aminoethyl)pyrimidin-2-yl]-5-fluorophenyl]-(2-methyl-6-morpholin-4-ylpyrimidin-4-yl)methanone], for which the IC50 was 10 to 1000 nM.

For `CCCCc1cc(Oc2cc(C#N)ccc2-c2ccc(C(O)C(C)(C)N)cn2)n(C)n1` (stereo not drawn) [compound 336, 4-[5-(2-amino-1-hydroxy-2-methylpropyl)pyridin-2-yl]-3-(5-butyl-2-methylpyrazol-3-yl)oxybenzonitrile], the IC50 was below 10 nM. The value for `COCCCN(C)c1cc(Oc2cc(C#N)ccc2-c2ncc(CCN)cn2)n(C)n1` [compound 800, 4-[5-(2-aminoethyl)pyrimidin-2-yl]-3-[5-[3-methoxypropyl(methyl)amino]-2-methylpyrazol-3-yl]oxybenzonitrile] was 10 to 1000 nM; that for `Cn1nc(-c2ccccn2)cc1Oc1cc(F)ccc1-c1ncc(CCN)cn1` [compound 977, 2-[2-[4-fluoro-2-(2-methyl-5-pyridin-2-ylpyrazol-3-yl)oxyphenyl]pyrimidin-5-yl]ethanamine] was below 10 nM.
